For 9 molecules, AC50 and IC50 results are on record in ChEMBL document CHEMBL1201862, “PubChem BioAssay data set” (2004).

Assay [1] can be described thus: OVCAR-3 cell viability loss – plate reader, dry powder samples, PAX8 inhibitor project, dose response (AID 743044). The format is functional, cell-based.
A short description of assay [2]: inhibitors acting on PAX2 in cells – cell-based, plate reader, dry powder samples, selectivity assay for PAX8 inhibitor project, dose response (AID 743048).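 Further: HEK293 cells carrying a WT1 promoter luciferase reporter driven by expressed Pax2; potency is for inhibition of Pax2 driven reporter signal.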 The format is functional.
Assay [3] can be described thus: PAX5 cellular inhibition readout – cell-based, plate reader, dry powder samples, selectivity assay for PAX8 inhibitor project, dose response (AID 743047).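 Further: HEK293 cells carrying a Pax5 driven CD19 promoter luciferase reporter; potency of inhibitors that lower reporter luminescence.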 The format is functional.
A short description of assay [4]: COV362 cell viability loss – plate reader, dry powder, SA12, cytotoxicity control for PAX8 inhibitor project, dose response (AID 743144). The format is functional, cell-based.
Assay [5] can be described thus: COV434 cell viability loss – plate reader, dry powder, SA7, cytotoxicity control for PAX8 inhibitor project, dose response (AID 743145). The format is functional, cell-based.
The nature of assay [6]: PAX8-dependent cell viability loss – plate reader, dry powder, dose response (AID 743049). The format is functional, cell-based.
Assay [7] in a line: OVCAR4 cell viability loss – plate reader, dry powder, SA11, cytotoxicity control for PAX8 inhibitor project, dose response (AID 743150). The format is functional, cell-based. The conditions noted are these: OVCAR-4.
Assay [8] can be described thus: OV-90 cell viability loss – plate reader, dry powder, SA8, PAX8 inhibitor project, dose response (AID 743149). The format is functional, cell-based.
The nature of assay [9]: general cell-killing toxicity readout – plate reader, dry powder samples, cytotoxicity control for PAX8 inhibitor project, dose response (AID 743021). The format is functional, cell-based.
Assay [10] is described as follows: IGROV1 cell killing – plate reader, dry powder samples, PAX8 inhibitor project, dose response (AID 743043). The conditions noted are these: IGROV-1. The format is functional, cell-based.
A short description of assay [11]: viability loss in HepG2 hepatoma cells – cell-based, cherry-picks, set 5, cytotoxicity control, dose response (AID 1053118). The format is functional.
The nature of assay [12]: inhibition of fibronectin matrix deposition – AH1F cells, Alexa488-fibronectin fluorescence, cherry-pick, set 2, dose response (AID 1117283). The format is functional, cell-based.
The nature of assay [13]: toxicity to human hepatoma HepG2 cells – cell-based, cherry-picked samples, cytotoxicity control, dose response (AID 1159577). The format is functional.
The nature of assay [14]: P. falciparum Dd2 growth inhibitors, dose response, SYBR Green, cherry-picked samples (AID 1159567). The format is functional, cell-based.
Assay [15] in a line: YAP1 overexpression rescue of CTGF inhibition – DLD1 cells, RT-qPCR, cherry-pick, mechanism study for YAP1 pathway inhibitor project, dose response (AID 1053127). The format is functional, cell-based. The conditions noted are these: DLD-1. On the technique in general: Real-time PCR tracks product formation cycle by cycle.
The nature of assay [16]: CTGF mRNA reduction in DLD1 cells – cell-based, DLD1 colon cancer, RT-qPCR, cherry-pick, dose response (AID 1053122). The format is functional. Particulars: Cancer cell lines.
The target in assay [17] is NAD-dependent protein deacylase sirtuin-5, mitochondrial (Homo sapiens, UniProt Q9NXA8). In words: blockers of sirtuin-5 peptide desuccinylation – biochemical, fluorescence imaging, cherry-pick, set 6, dose response (AID 720597).
Assay [18] can be described thus: cytotoxicity in MITF-independent A375 cells – cell-based, CellTiter-Glo luminescence, dry powder, set 4, counter-screen for MITF inhibitor project, dose response (AID 624364).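 Further: A375 melanoma cells are MITF independent so this is a counter screen.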 The format is functional. The conditions noted are these: A-375. (In general: In ATP-based viability assays light output follows the ATP content of the culture.)
Assay [19] can be described thus: viability loss in MITF-independent A375 cells – cell-based, CellTiter-Glo luminescence, dry powder, set 2, counter-screen for MITF inhibitor project, dose response (AID 624489).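 Further: actives are compounds lowering A375 viability meaning general cytotoxicity.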 The format is functional. The conditions noted are these: A-375.
The nature of assay [20]: cells. The conditions noted are these: HEK293.
For assay [21], the target named is T1, Low molecular weight phosphotyrosine protein phosphatase (Homo sapiens, UniProt P24666).
T1 sequence (P24666 whole entry): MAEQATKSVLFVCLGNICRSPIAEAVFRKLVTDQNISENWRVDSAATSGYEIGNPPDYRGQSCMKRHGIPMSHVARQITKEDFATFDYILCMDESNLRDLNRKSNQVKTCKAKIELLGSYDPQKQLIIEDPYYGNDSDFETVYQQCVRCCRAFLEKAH
Briefly: inhibition of LMPTP-A enzymatic activity – biochemical, OMFP substrate, fluorescence intensity, set 2, dose response (AID 743307). The format is functional.

Assay [22] has as its target T1, Low molecular weight phosphotyrosine protein phosphatase. In words: inhibition of human LMPTP enzyme activity – biochemical, absorbance, pNPP substrate, LMPTP-A isoform, set 2, orthogonal assay, dose response (AID 743308). The format is functional.
The target in assay [23] is G-protein coupled receptor 183 (Homo sapiens, UniProt P32249). Briefly: SAR confirmation of small molecule antagonists of the EBI2 receptor via a luminescent beta-arrestin assa. The format is functional.
Assay [24] is described as follows: Reduced DLD-1 viability, concentration-response, CellTiter-Glo luminescence (AID 1117352). The format is functional.
Assay [25] can be described thus: SNU-C1 cell viability reduction, dose response, CellTiter-Glo luminescence (AID 1117323). The format is functional, cell-based.
Assay [26] is described as follows: rise of 2N DNA cells, HeLa – IC50, dose response (AID 1117349). The format is functional, cell-based.
The nature of assay [27]: cytotoxicity toward HCT116 cells – cell-based, CellTiter-Glo luminescence, IC50, dose response (AID 1117332). The format is functional. Particulars: HCT-116.
Assay [28] in a line: cytotoxicity toward Colo320 cells – cell-based, CellTiter-Glo luminescence, IC50, dose response (AID 1117334). The format is functional. The conditions noted are these: COLO 320.
Assay [29] is described as follows: rise of 4N DNA cells, HeLa – IC50, dose response (AID 1117351). The format is functional, cell-based.
A short description of assay [30]: cytotoxicity toward HT-29 cells – cell-based, CellTiter-Glo luminescence, IC50, dose response (AID 1117330). The format is functional.
Assay [31] is described as follows: HCT116 cell viability decrease, GSK3B pretreatment – CellTiter-Glo, IC50, dose response (AID 1117339). Particulars: HCT-116. The format is functional.
A short description of assay [32]: CellTiter-Glo luminescence survival assay, SW480 colon tumor line, concentration-response curve, half-maximal inhibitory concentration (AID 1117338). The format is functional.
Assay [33] is described as follows: RKO cell viability reduction, dose response, CellTiter-Glo luminescence (AID 1117322). The format is functional.

The source made the active and inactive calls.

Sequence of G-protein coupled receptor 183 (P32249 whole entry): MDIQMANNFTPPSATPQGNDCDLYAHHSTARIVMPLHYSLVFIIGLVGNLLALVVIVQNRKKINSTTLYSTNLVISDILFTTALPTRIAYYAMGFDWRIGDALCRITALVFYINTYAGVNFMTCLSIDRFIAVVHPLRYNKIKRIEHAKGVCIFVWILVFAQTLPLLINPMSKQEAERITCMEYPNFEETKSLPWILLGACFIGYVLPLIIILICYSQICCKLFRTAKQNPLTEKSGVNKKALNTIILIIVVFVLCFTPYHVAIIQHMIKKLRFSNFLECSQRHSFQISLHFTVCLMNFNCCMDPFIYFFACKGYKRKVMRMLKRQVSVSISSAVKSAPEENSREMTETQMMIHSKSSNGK
Sequence of NAD-dependent protein deacylase sirtuin-5, mitochondrial (Q9NXA8 whole entry): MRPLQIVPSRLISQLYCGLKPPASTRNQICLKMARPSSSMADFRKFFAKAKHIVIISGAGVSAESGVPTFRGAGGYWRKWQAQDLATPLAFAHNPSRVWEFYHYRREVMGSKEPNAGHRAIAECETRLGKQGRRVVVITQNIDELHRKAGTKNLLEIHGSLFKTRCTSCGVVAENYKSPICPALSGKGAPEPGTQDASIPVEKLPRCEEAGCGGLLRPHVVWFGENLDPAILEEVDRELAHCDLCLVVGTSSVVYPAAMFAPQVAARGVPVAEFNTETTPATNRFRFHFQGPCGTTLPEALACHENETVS

Consider `CN(C)CCN(C(=O)/C=C/c1cccs1)c1nc2c(F)cc(F)cc2s1`, for which the AC50 in [1] is 29.1 µM (active); in assay [2], > 100 µM (inactive); in assay [3], > 100 µM (inactive); in assay [4], 21.2 µM (active); in assay [5], 44.9 µM (active); in assay [6], 19.4 µM (active). For the same molecule, the AC50 in [7] is 31.2 µM (active); in [8], 32.8 µM (active); in assay [9] it was 11.6 µM (active); in assay [10], 34.3 µM (active).
For `COc1ccc([N+](=O)[O-])cc1NS(=O)(=O)c1ccc(C(=O)N2CCCC2)cc1`, the AC50 is > 52 µM (inactive) in assay [11] and 51 µM (active) in [12].
On to `C[C@@H]1CN([C@H](C)CO)C(=O)c2ccccc2-c2ccccc2CO[C@@H]1CN(C)Cc1ccc(Oc2ccccc2)cc1`, for which the AC50 was 19.8 µM (active) in assay [13], 6.67 µM (active) in assay [14], 7.84 µM (active) in [15] and 6.79 µM (active) in [16].
`COCC(=O)N1C[C@H](C)[C@H](OC)CN(C)C(=O)c2cc(NC(=O)C3CCC3)ccc2OC[C@@H]1C`: the AC50 in [17] is 13.2 µM (active).
On to `CCN1CCN(C2=C(NS(=O)(=O)c3ccc(Br)s3)C(=O)c3ccccc3C2=O)CC1`, for which the AC50 in [18] and in assay [19] was > 70 µM (inactive) throughout.
As to `Fc1ccc2c(c1)[nH]c(=S)n2CCOc1ccccc1`, in assay [20], the AC50 was > 52 µM (inactive).
`CCCCNc1nc(-c2ccccc2)nc2ccccc12`: the results for the IC50 in [21] and in assay [22] were 23.2 µM (inactive) and > 80 µM (inactive), respectively.
For `COc1ccc(/C=C/C(=O)N2CCN(S(=O)(=O)c3ccc(Br)cc3)CC2)cc1`, the IC50 in [23] is 9.58 nM (active).
For the molecule `CCC(=O)c1ccc(O)cc1` [PAROXYPROPIONE], the IC50 was 6.67 µM (inactive) in [24]; > 20 µM (inactive) in assay [25]; > 10 µM (inactive) in assay [26]; > 20 µM (inactive) in [27]; > 20 µM (inactive) in assay [28]; > 10 µM (inactive) in assay [29]. Besides, the IC50 was > 20 µM (inactive) in assay [30], 6.25 µM (inactive) in [31], 4.1 µM (active) in assay [32] and 7.8 µM (inactive) in [33].

By AC50 is commonly meant the concentration at which the activity in the assay is half-maximal. As a reminder, the IC50 is the concentration that gives 50% inhibition.
